One data set addresses human Nav1.5 (Homo sapiens (Human), UniProt Q14524). The experiment in a line: Human Nav1.5 inhibitory activity evaluation (automated patch clamp QPatch16X, HEK293 cells stably expressing human Nav1.5). It is filed as cell-based. The gist of the method:
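Whole-cell automated patch clamp at room temperature on HEK293 stably expressing human Nav1.5; holding −80 mV, 20 consecutive cardiomyocyte action-potential-like test pulses before and after compound (0.1% DMSO). Inhibition measured on inward current at 20th pulse; IC50 from concentration-response curve.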
On the technique in general: Patch clamp records ionic current or voltage across a cell membrane.

For the next data set, the target named is human Nav1.7 (Homo sapiens (Human), UniProt Q15858). The data set can be described thus: Human Nav1.7 inhibitory activity evaluation (automated patch clamp QPatch16X, HEK293A cells stably expressing human Nav1.7 and human Navβ1). The data set is classed as cell-based. The method, boiled down: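 QPatch16X whole-cell recordings at room temperature from HEK293A cells stably expressing human Nav1.7 with Navβ1, CsF-based internal solution, pH 7.4 external, 0.1% DMSO. From −100 mV holding, protocol included a 15 s hold at a potential inactivating ~30-40% of channels; IC50 from inward current at the second −10 mV pulse.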
human Nav1.7, sequence (Q15858 whole entry): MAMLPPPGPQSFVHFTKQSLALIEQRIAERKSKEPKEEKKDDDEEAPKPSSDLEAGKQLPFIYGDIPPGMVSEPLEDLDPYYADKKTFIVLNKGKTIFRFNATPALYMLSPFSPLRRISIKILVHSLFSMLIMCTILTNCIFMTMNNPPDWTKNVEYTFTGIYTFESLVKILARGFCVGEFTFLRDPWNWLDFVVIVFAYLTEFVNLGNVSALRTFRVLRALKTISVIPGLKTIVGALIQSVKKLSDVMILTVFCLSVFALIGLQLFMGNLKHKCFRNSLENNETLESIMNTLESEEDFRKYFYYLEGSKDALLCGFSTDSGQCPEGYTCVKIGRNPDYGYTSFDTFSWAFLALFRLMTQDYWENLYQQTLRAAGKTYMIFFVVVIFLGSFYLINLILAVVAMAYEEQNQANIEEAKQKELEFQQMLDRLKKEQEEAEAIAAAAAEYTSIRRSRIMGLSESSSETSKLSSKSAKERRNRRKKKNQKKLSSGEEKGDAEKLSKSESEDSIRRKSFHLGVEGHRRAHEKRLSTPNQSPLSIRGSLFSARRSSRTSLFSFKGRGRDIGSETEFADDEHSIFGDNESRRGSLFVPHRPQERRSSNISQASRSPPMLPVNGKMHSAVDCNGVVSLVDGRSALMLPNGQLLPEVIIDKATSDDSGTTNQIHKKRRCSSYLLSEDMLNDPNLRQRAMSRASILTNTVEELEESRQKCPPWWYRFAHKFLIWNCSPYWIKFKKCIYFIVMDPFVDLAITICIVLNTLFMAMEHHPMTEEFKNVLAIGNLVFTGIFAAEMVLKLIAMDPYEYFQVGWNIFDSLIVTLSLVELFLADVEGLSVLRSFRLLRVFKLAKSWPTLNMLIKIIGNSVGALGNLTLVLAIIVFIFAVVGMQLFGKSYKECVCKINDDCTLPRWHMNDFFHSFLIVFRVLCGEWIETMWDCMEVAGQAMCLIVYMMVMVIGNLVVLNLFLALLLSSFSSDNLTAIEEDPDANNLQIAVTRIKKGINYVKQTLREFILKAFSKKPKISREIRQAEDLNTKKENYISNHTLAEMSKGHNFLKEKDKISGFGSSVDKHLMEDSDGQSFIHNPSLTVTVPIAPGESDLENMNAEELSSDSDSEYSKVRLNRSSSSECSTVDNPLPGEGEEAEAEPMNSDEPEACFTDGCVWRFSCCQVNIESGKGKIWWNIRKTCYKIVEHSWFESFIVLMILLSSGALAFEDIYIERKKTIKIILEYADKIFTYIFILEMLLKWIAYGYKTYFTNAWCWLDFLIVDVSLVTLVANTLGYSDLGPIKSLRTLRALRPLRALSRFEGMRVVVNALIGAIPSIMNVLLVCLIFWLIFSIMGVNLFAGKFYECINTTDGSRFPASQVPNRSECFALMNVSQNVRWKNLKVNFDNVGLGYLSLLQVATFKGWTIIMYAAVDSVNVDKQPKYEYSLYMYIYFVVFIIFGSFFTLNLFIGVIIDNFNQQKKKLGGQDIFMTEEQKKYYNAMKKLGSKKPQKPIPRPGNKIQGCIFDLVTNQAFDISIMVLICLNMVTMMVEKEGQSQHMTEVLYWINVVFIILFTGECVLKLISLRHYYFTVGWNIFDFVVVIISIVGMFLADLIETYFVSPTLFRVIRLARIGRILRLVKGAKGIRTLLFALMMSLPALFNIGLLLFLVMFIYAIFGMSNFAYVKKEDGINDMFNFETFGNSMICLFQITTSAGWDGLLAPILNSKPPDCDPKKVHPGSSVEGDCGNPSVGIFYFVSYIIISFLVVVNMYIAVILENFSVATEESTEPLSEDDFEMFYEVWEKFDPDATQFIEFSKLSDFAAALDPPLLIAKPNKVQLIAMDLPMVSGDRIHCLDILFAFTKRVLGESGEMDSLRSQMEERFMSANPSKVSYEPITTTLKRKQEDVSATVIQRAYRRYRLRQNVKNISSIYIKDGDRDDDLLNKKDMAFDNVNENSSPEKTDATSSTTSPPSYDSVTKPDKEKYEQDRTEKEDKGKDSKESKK
human Nav1.7, sequence (Q07699 19-218 partner): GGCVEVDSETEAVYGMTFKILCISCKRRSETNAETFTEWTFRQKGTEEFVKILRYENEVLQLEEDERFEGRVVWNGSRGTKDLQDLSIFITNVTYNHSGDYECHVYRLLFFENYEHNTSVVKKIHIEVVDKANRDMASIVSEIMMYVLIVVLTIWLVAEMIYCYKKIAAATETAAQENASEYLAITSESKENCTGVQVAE

[1] abbreviates: human Nav1.5, automated patch clamp.
[2] abbreviates: human Nav1.7, automated patch clamp.
[3] abbreviates: HEK293 cells stably expressing human Nav1.5, automated patch clamp QPatch16X.
[4] abbreviates: HEK293A cells stably expressing human Nav1.7 and human Navβ1, automated patch clamp QPatch16X.

What is called IC50 is the midpoint of a concentration-inhibition curve. Low readings indicate greater potency in that assay, high ones weaker potency in that assay.

human Nav1.5, sequence (Q14524 whole entry): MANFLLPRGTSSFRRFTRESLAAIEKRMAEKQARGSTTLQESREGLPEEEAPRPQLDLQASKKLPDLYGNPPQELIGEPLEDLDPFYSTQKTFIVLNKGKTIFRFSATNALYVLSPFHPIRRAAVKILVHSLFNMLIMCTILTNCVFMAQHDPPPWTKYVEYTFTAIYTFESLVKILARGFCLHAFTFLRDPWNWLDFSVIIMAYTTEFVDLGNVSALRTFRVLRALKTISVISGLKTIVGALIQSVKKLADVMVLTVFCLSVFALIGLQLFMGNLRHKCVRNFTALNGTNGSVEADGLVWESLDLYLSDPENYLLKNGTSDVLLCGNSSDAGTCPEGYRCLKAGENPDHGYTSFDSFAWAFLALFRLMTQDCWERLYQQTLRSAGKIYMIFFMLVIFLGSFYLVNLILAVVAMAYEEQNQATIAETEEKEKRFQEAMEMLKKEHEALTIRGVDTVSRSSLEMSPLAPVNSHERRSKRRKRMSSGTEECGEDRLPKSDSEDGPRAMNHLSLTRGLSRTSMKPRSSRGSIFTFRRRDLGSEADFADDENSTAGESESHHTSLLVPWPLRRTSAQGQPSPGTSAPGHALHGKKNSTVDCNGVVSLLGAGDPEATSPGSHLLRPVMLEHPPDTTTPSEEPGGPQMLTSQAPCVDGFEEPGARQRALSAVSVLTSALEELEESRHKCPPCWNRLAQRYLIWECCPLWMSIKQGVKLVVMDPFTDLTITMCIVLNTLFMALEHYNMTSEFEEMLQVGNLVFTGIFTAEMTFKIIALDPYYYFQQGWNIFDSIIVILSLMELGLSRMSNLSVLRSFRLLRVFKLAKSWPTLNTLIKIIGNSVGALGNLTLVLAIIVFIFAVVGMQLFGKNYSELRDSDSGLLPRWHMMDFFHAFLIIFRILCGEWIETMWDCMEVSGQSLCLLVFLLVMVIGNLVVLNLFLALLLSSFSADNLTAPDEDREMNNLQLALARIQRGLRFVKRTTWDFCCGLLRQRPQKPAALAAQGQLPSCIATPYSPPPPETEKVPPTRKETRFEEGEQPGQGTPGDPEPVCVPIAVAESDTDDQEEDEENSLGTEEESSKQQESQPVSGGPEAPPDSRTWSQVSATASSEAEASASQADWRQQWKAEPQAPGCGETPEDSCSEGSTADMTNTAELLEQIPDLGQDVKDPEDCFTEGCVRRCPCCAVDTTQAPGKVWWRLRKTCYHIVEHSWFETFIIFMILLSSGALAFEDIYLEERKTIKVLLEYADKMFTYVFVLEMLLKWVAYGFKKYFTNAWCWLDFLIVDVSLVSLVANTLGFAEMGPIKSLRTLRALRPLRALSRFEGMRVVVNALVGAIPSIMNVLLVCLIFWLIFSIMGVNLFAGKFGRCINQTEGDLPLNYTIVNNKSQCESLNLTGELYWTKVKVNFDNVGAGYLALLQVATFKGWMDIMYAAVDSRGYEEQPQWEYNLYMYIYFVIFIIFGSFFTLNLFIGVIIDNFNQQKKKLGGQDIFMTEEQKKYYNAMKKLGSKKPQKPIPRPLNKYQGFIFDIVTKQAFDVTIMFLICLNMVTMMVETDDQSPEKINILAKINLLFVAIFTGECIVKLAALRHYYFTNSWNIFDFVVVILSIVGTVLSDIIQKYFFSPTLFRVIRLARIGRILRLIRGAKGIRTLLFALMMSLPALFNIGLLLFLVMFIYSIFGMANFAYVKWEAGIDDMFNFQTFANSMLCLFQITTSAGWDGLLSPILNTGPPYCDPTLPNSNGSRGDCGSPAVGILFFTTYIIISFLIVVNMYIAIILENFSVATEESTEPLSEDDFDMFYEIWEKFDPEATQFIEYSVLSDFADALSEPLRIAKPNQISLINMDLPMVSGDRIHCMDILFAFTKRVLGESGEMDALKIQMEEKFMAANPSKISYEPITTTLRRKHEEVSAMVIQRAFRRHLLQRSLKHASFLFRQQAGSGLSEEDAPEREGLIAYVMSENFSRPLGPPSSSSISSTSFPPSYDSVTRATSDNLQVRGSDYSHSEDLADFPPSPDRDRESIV

As for `O=C(N[C@H]1COc2ccc(C(F)(F)F)cc2C1O)c1cc2n(n1)CC[C@H](COCC1CC1)O2` (single isomer, unassigned; isomer a) [575(isomer A)], the IC50 on human Nav1.5 (setting [1]) was 1000 to 3000 nM; against human Nav1.7 (setting [2]) it was less than 1000 nM.
As to `O=C(N[C@H]1COc2ccc(C(F)(F)F)cc2C1O)c1cc2n(n1)C[C@H](COCC1CC1)O2` (single isomer, unassigned; isomer a) [576(isomer A)], the IC50 against human Nav1.5 (setting [1]) was no less than 3000 nM; against human Nav1.7 (setting [2]), less than 1000 nM.
`O=C(N[C@H]1COc2ccc(C(F)(F)F)cc2C1F)c1cc2n(n1)CC[C@H](C(F)F)O2` (single isomer, unassigned; isomer a) [579(isomer A)]: the values for the IC50 on human Nav1.5 (setting [1]) and against human Nav1.7 (setting [2]) were 1000 to 3000 nM and less than 1000 nM, respectively.
As for `COC1c2cc(C(F)(F)F)ccc2OC[C@@H]1NC(=O)c1cc2n(n1)CC(COCC(F)(F)F)O2` (single isomer, unassigned; isomer a) [597(isomer A)], the IC50 was no less than 3000 nM against human Nav1.5 (setting [1]) and less than 1000 nM against human Nav1.7 (setting [2]).
The like results for `COC1c2cc(C(F)(F)F)ccc2OC[C@@H]1NC(=O)c1cc2n(n1)CC(COCC(F)(F)F)O2` (single isomer, unassigned; isomer b) [597(isomer B)] were, in that order, 1000 to 3000 nM and less than 1000 nM.
For the compound `O=C(NC1COc2ccc(F)cc2C1)c1cn2c(n1)CCC(C(F)(F)F)C2` (centres unmarked) [Example 1, N-(6-fluorochroman-3-yl)-6-(trifluoromethyl)-5,6,7,8-tetrahydroimidazo[1,2-a]pyridine-2-carboxamide], the IC50 was no less than 3000 nM against human Nav1.5 (setting [3]) and less than 10000 nM against human Nav1.7 (setting [4]).
The like results for `CN(C(=O)c1cn2c(n1)CCC(C(F)(F)F)C2)[C@H]1COc2ccc(Cl)cc2C1` (some centres unmarked) [Example 3] were, in that order, 1000 to 3000 nM and less than 1000 nM.
As to `O=C(N[C@H]1COc2ccc(Br)cc2C1)c1cn2c(n1)CCC(C(F)(F)F)C2` (some centres unmarked) [Example 5], the results for the IC50 on human Nav1.5 (setting [3]) and against human Nav1.7 (setting [4]) were 1000 to 3000 nM and less than 1000 nM, respectively.
The like results for `O=C(N[C@H]1COc2ccc(C(F)F)cc2C1)c1cn2c(n1)CCC(C(F)(F)F)C2` (some centres unmarked) [Example 6] were, in that order, 1000 to 3000 nM and less than 10000 nM.
The like results for `O=C(NC1COc2cccc(Cl)c2C1)c1cn2c(n1)CCC(C(F)(F)F)C2` (centres unmarked) [Example 8] were, in that order, no less than 3000 nM and less than 1000 nM.
Taken in the same sequence, the figures for `CCc1ccc2c(c1)C[C@@H](NC(=O)c1cn3c(n1)CCC(C(F)(F)F)C3)CO2` (some centres unmarked) [Example 11] were no less than 3000 nM and less than 1000 nM.
For the compound `O=C(NC1COc2ccc(Br)cc2C1)c1cn2c(n1)CCC(C(F)(F)F)C2` (centres unmarked) [Example 12], the IC50 against human Nav1.5 (setting [3]) is 1000 to 3000 nM; at human Nav1.7 (setting [4]), less than 1000 nM.
Taken in the same sequence, the figures for `O=C(N[C@H]1COc2ccccc2C1)c1nc2n(c1I)CC(C(F)(F)F)CC2` (stereo partly drawn) [Example 14, N—((R)-chroman-3-yl)-3-iodo-6-(trifluoromethyl)-5,6,7,8-tetrahydroimidazo[1,2-a]pyridine-2-carboxamide] were no less than 3000 nM and less than 10000 nM.
Taken in the same sequence, the figures for `O=C(N[C@H]1COc2ccccc2C1)c1nc2n(c1-c1ccccc1)CCCC2` [Example 16] were less than 1000 nM and less than 1000 nM.
Turning to `COc1cccc(-c2c(C(=O)N[C@H]3COc4ccc(Cl)cc4C3)nc3n2CCCC3)n1` [Example 17, (R)—N-(6-chlorochroman-3-yl)-3-(6-methoxypyridin-2-yl)-5,6,7,8-tetrahydroimidazo[1,2-a]pyridine-2-carboxamide], the concentration for half-maximal inhibition (IC50) at human Nav1.5 (setting [3]) was 1000 to 3000 nM; against human Nav1.7 (setting [4]), less than 1000 nM.
For `O=C(N[C@H]1COc2ccc(C(F)(F)F)cc2C1)c1nc2n(c1-c1ccn[nH]1)CCCC2` [Example 19], the IC50 at human Nav1.5 (setting [3]) and against human Nav1.7 (setting [4]) was less than 1000 nM in each case.
Take `O=C(N[C@H]1COc2ccc(COCC(F)(F)F)cc2C1)c1nc2n(c1-c1ccn[nH]1)CCCC2` [Example 20]: the 50% inhibitory concentration (IC50) at human Nav1.5 (setting [3]) and on human Nav1.7 (setting [4]) was less than 1000 nM in each case.
For `O=C(NCCc1cccc(C(F)(F)F)c1)c1nc2n(c1-c1ccccc1)CCCC2` [Example 22], the results for the IC50 on human Nav1.5 (setting [3]) and on human Nav1.7 (setting [4]) were no less than 3000 nM and less than 10000 nM, respectively.
The like results for `CCC1CCc2nc(C(=O)N[C@H]3COc4ccccc4C3)cn2C1` (some centres unmarked) [Example 23] were, in that order, no less than 3000 nM and less than 10000 nM.
Take `O=C(N[C@H]1COc2ccccc2C1)c1nc2n(c1Cl)CC(c1ccccc1)CC2` (some centres unmarked) [Example 25]: the IC50 against human Nav1.5 (setting [3]) is 1000 to 3000 nM; on human Nav1.7 (setting [4]), less than 10000 nM.
Taken in the same sequence, the figures for `COc1ncccc1C1CCc2nc(C(=O)N3CCC(c4ccccc4)C3)cn2C1` (centres unmarked) [Example 26] were no less than 3000 nM and less than 10000 nM.
As for `COc1cccc(C2CCc3nc(C(=O)N[C@H]4COc5ccccc5C4)cn3C2)n1` (some centres unmarked) [Example 27], the IC50 on human Nav1.5 (setting [3]) and against human Nav1.7 (setting [4]) was less than 1000 nM each time.
Consider `COc1cccc(OC2CCN(C(=O)c3cn4c(n3)CCC(C3CCCC3)C4)C2)n1` (centres unmarked) [Example 28], for which the IC50 on human Nav1.5 (setting [3]) was no less than 3000 nM; at human Nav1.7 (setting [4]), less than 10000 nM.
In the case of `O=C(c1cn2c(n1)CCC(CCc1ccccc1)C2)N1CCC(Oc2ccccn2)C1` (centres unmarked) [Example 29], the IC50 against human Nav1.5 (setting [3]) is 1000 to 3000 nM; against human Nav1.7 (setting [4]) it was less than 10000 nM.
The like results for `O=C(c1cn2c(n1)CCC(c1cccnc1C(F)(F)F)C2)N1CCC1Cc1ccccc1` (centres unmarked) [Example 30] were, in that order, no less than 3000 nM and less than 10000 nM.
The like results for `COc1ncc(C(F)(F)F)cc1C1CCc2nc(C(=O)N3CCOC(c4ccc(F)cc4F)C3)cn2C1` (centres unmarked) [Example 32] were, in that order, 1000 to 3000 nM and less than 10000 nM.
For the compound `O=C(N[C@H]1COc2ccccc2C1)c1cn2c(n1)CCC(COc1ccccc1)C2` (some centres unmarked) [Example 33], the results for the IC50 against human Nav1.5 (setting [3]) and against human Nav1.7 (setting [4]) were 1000 to 3000 nM and less than 1000 nM, respectively.
The like results for `CC(C)(C)OCC1CCc2nc(C(=O)N[C@H]3COc4ccccc4C3)cn2C1` (some centres unmarked) [Example 34] were, in that order, no less than 3000 nM and less than 10000 nM.
Take `O=C(N[C@H]1COc2ccccc2C1)c1cn2c(n1)CCC(C1(F)CCC1)C2` (some centres unmarked) [Example 35]: the half-inhibitory concentration (IC50) on human Nav1.5 (setting [3]) was 1000 to 3000 nM; on human Nav1.7 (setting [4]) it was less than 1000 nM.
For the compound `CC(C)(C)C1CCc2nc(C(=O)N[C@H]3COc4ccccc4C3)cn2C1` (some centres unmarked) [Example 36], the values for the IC50 on human Nav1.5 (setting [3]) and against human Nav1.7 (setting [4]) were no less than 3000 nM and less than 1000 nM, respectively.
The like results for `O=C(N[C@H]1COc2ccc(Cl)cc2C1)c1cn2c(n1)CCC(OCC(F)(F)F)C2` (some centres unmarked) [Example 38] were, in that order, no less than 3000 nM and less than 10000 nM.
The like results for `CC(C)COC1CCc2nc(C(=O)N[C@H]3COc4ccccc4C3)cn2C1` (some centres unmarked) [Example 41] were, in that order, no less than 3000 nM and less than 10000 nM.
Taken in the same sequence, the figures for `Cc1ccc(C2Cn3cc(C(=O)N[C@H]4COc5ccccc5C4)nc3CN2)s1` (some centres unmarked) [Example 43] were no less than 3000 nM and less than 10000 nM.
Consider `O=C(N[C@H]1COc2ccccc2C1)c1cn2c(n1)CNC(c1cccc(C(F)(F)F)n1)C2` (some centres unmarked) [Example 46], for which the half-maximal inhibitory concentration (IC50) is 1000 to 3000 nM on human Nav1.5 (setting [3]) and less than 10000 nM against human Nav1.7 (setting [4]).
Taken in the same sequence, the figures for `CN1Cc2nc(C(=O)N[C@H]3COc4cccc(F)c4C3)cn2CC1c1cccc(C(F)(F)F)n1` (some centres unmarked) [Example 47] were no less than 3000 nM and less than 10000 nM.
The like results for `CC(C)CCC1Cn2cc(C(=O)N[C@H]3COc4ccccc4C3)nc2CN1` (some centres unmarked) [Example 49] were, in that order, no less than 3000 nM and less than 10000 nM.
The like results for `O=C(N[C@H]1COc2ccccc2C1)c1cn2c(n1)CNC(CCC1CCCC1)C2` (some centres unmarked) [Example 51] were, in that order, 1000 to 3000 nM and less than 1000 nM.

The values above are taken from US12421225B2, “Heteroaromatic amide derivative and medicament containing the same” (KAKEN PHARMACEUTICAL CO., LTD., priority 2018, dated 2025).
